Active and inactive are the calls of the source. The rule behind the calls is not given here.
Tests used:
Plasmodium falciparum [1] = test: Antimalarial activity against chloroquine-sensitive Plasmodium falciparum 3D7 infected in erythroctes incubated for 72 hrs by SYBR green 1 based spectrofluorometer; assay type: functional, organism-based, Erythrocyte; conditions: erythrocyte
Plasmodium falciparum [2] = test: Antimalarial activity against chloroquine-resistant Plasmodium falciparum K1 infected in erythroctes incubated for 72 hrs by SYBR green 1 based spectrofluorometer; assay type: functional, organism-based, Erythrocyte; conditions: erythrocyte
Plasmodium berghei [3] = test: Antiplasmodial activity against Plasmodium berghei KBG-173 infected in male mouse assessed as inhibition of parasitemia at 50 mg/kg, po administered as single dose on day 1 post exposure and measured on day 3 post exposure relative to control; assay type: functional; conditions: KBG-173, 72 h, time 3 day
Plasmodium berghei [4] = test: Antiplasmodial activity against Plasmodium berghei KBG-173 infected in male mouse assessed as inhibition of parasitemia at 50 mg/kg, po administered as single dose on day 1 post exposure and measured on day 6 post exposure relative to control; assay type: functional; conditions: KBG-173, 72 h, time 3 day
Plasmodium falciparum [5] = test: Antimalarial activity against chloroquine and pyrimethamine-resistant Plasmodium falciparum W2 infected in erythroctes incubated for 72 hrs by SYBR green 1 based spectrofluorometer; assay type: functional, organism-based; conditions: for EC50: W2, 72 h
Plasmodium falciparum [6] = test: Antimalarial activity against chloroquine,pyrimethamine,mefloquine and atovaquine-resistant Plasmodium falciparum TM90-C2B infected in erythroctes incubated for 72 hrs by SYBR green 1 based spectrofluorometer; assay type: functional, organism-based
Plasmodium falciparum [7] = test: Antiplasmodial activity against chloroquine-sensitive Plasmodium falciparum 3D7; assay type: functional, organism-based
Plasmodium berghei [8] = test: Antimalarial activity against liver stage Plasmodium berghei sporozoites expressing luciferase infected in human HepG2 cells; assay type: functional, organism-based
[9] = Cytotoxicity against mouse J774.A1 cells; assay type: toxicity, cell-based
Plasmodium falciparum [10] = test: Antimalarial activity against Plasmodium falciparum W2 infected in RBC assessed as inhibition of parasite growth incubated for 72 hrs by YOYO1 staining based LSR II flow cytometer; assay type: functional, organism-based; conditions: W2, Erythrocyte
Plasmodium falciparum [11] = test: Fold resistance, ratio of EC50 for antiplasmodial activity against Plasmodium falciparum W2 infected in RBC assessed as inhibition of parasite growth incubated for 22 days to EC50 for antiplasmodial activity against Plasmodium falciparum W2 infected in RBC assessed as inhibition of parasite growth incubated for 72 hrs; assay type: functional
Plasmodium falciparum [12] = test: Antimalarial activity against Plasmodium falciparum W2 infected in RBC assessed as reduction in parasitemia at 700 nM measured immediately by YOYO1 staining based LSR II flow cytometer; assay type: functional, organism-based
Plasmodium falciparum [13] = test: Antimalarial activity against Plasmodium falciparum W2 infected in RBC assessed as parasitemia at 700 nM measured on day 4 by microscopic analysis relative to control; assay type: functional; conditions: time 4 day
Plasmodium falciparum [14] = test: Antimalarial activity against Plasmodium falciparum W2 infected in RBC assessed as inhibition of growth incubated for 22 days by YOYO1 staining based LSR II flow cytometer; assay type: functional, organism-based; conditions: W2, Erythrocyte, 528 h

Row | Structure (SMILES) | EC50 (Plasmodium falciparum [1]) | EC50 (Plasmodium falciparum [2]) | inhibition in vivo at 50 mg/kg (Plasmodium berghei [3]) | inhibition in vivo at 50 mg/kg (Plasmodium berghei [4]) | also measured
1 | CCCC1=C(C(=O)OCC)C(c2ccc(Cl)cc2C)C2=C(CC(c3ccc(OC)c(OC)c3)OC2=O)N1 (stereo in doubt; 45B) | 5.1 nM | 3.9 nM | < 10% | < 10% | –
2 | CCOC(=O)C1=C(C)NC2=C(C(=O)OC(c3ccc(OC)c(OC)c3)C2)C1c1ccccc1C (stereo in doubt; 6B) | – | – | – | – | Activity (Plasmodium falciparum [5]): Active; Activity (Plasmodium falciparum [6]): Active
3 | CCOC(=O)C1=C(C)NC2=C(C(=O)OC(c3ccc(OC)c(OC)c3)C2)C1c1ccc(Cl)cc1C (stereo in doubt; 38B) | 10.6 nM | 29.1 nM | < 10% | < 10% | –
4 | CCN(CC)Cc1cc(Nc2ccnc3cc(Cl)ccc23)ccc1O [AMODIAQUINE] | – | – | 100% | 100% | –
5 | CCOC(=O)C1=C(C)NC2=C(C(=O)OC(c3ccc(Cl)c(OC)c3)C2)C1c1ccc(Cl)cc1C (stereo in doubt; 42B) | 58 nM | 38.4 nM | 34% | 5.83% | –
6 | CCCC1=C(C(=O)OCC)C(c2ccc(Cl)cc2C)C2=C(CC(c3ccc(Cl)c(OC)c3)OC2=O)N1 (stereo in doubt; 47B) | 22.7 nM | 21.5 nM | < 10% | < 10% | –
7 | CCCC1=C(C(=O)OCC)C(c2ccccc2Cl)C2=C(CC(c3ccc(OC)c(OC)c3)OC2=O)N1 (stereo in doubt; 32B) | 16.1 nM | 9.2 nM | < 10% | < 10% | EC50 (Plasmodium falciparum [5]): < 100 nM; EC50 (Plasmodium falciparum [6]): < 100 nM
8 | COc1cc(OC)c(NC(=O)[C@H]2c3ccccc3C(=O)N(CC(C)C)[C@@H]2c2cccs2)cc1Cl | – | – | – | – | EC50 (Plasmodium falciparum [7]): < 50 nM
9 | CCOC(=O)C1=C(C)NC2=C(C(=O)CC(c3ccc(OC)c(OC)c3)C2)C1c1ccc(Cl)cc1C (stereo in doubt; 37B) | 14.5 nM | 15.9 nM | < 10% | < 10% | –
10 | CCCC1=C(C(=O)OCC)C(c2ccc(Cl)cc2C)C2=C(CC(c3ccc(OC)c(OC)c3)CC2=O)N1 (stereo in doubt; 44B) | 3.4 nM | 11.1 nM | 34% | 6.76% | –
11 | CCCC1=C(C(=O)OCC)C(c2ccc(Cl)cc2C)C2=C(CC(c3ccc(Cl)c(OC)c3)CC2=O)N1 (stereo in doubt; 46B) | 10.4 nM | 19.8 nM | < 10% | < 10% | –
12 | COCC1=C(C(=O)OC)C(c2ccc(Cl)cc2C)C2=C(CC(c3ccc(OC)c(OC)c3)CC2=O)N1 (stereo in doubt; 51B) [listing 1 of 2 here] | – | – | – | – | Activity (Plasmodium berghei [8]): inactive
13 | CCOc1ccc(N(C(C)=O)C2=C(N(C)C)C(=O)c3ccccc3C2=O)cc1 | – | – | – | – | EC50 (Plasmodium falciparum [7]): < 50 nM
14 | CCOC(=O)C1=C(C)NC2=C(C(=O)CC(c3ccc(Cl)c(OC)c3)C2)C1c1ccccc1Cl (stereo in doubt; 39B) [listing 1 of 2 here] | – | – | – | – | Activity (Plasmodium berghei [8]): inactive
15 | CCOC(=O)C1=C(C)NC2=C(C(=O)OC(c3ccc(OC)c(OC)c3)C2)C1c1ccccc1Cl (stereo in doubt; 3B) [listing 1 of 2 here] | 260 nM | 53.9 nM | 100% | 77.6% | –
16 | CCOC(=O)C1=C(C)NC2=C(C(=O)OC(c3ccc(Cl)c(OC)c3)C2)C1c1ccccc1Cl (stereo in doubt; 40B) | 135 nM | 217 nM | 66% | < 10% | –
17 | COCC1=C(C(=O)OC)C(c2ccc(Cl)cc2C)C2=C(CC(c3ccc(OC)c(OC)c3)CC2=O)N1 (stereo in doubt; 51B) [listing 2 of 2 here] | 2.5 nM | 6.2 nM | 100% | < 10% | –
18 | CCOC(=O)C1=C(C)NC2=C(C(=O)OC(c3ccc(OC)c(OC)c3)C2)C1c1ccc(Cl)cc1 (stereo in doubt; 5B) | – | – | – | – | Activity (Plasmodium falciparum [5]): Active; Activity (Plasmodium falciparum [6]): Active
19 | CCOC(=O)C1=C(C)NC2=C(C(=O)CC(c3ccc(Cl)c(OC)c3)C2)C1c1ccccc1Cl (stereo in doubt; 39B) [listing 2 of 2 here] | 18.5 nM | 22.3 nM | < 10% | < 10% | –
20 | CCOC(=O)C1=C(C)NC2=C(C(=O)OC(c3ccc(Cl)cc3)C2)C1c1ccccc1Cl (stereo in doubt; 20A) | 510 nM | 560 nM | – | – | EC50 [9]: > 20000 nM
21 | CCCC1=C(C(=O)OCC)C(c2ccccc2Cl)C2=C(CC(c3ccc(OC)c(OC)c3)CC2=O)N1 (stereo in doubt; 43B) | 0.8 nM | 1.3 nM | < 10% | < 10% | EC50 (Plasmodium falciparum [5]): 3 nM; EC50 (Plasmodium falciparum [6]): 4.4 nM
22 | CCCOC(=O)C1=C(C)NC2=C(C(=O)CC(c3ccc(OC)c(OC)c3)C2)C1c1ccccc1F (configuration not stated) | – | – | – | – | EC50 (Plasmodium falciparum [10]): 8.4 nM; Ratio EC50 (Plasmodium falciparum [11]): 311; EC50 (Plasmodium falciparum [7]): < 50 nM; Activity (Plasmodium falciparum [12]): Active; Activity (Plasmodium falciparum [13]): 0%; EC50 (Plasmodium falciparum [14]): 2610 nM
23 | CCOC(=O)C1=C(C)NC2=C(C(=O)OC(c3ccc(OC)c(OC)c3)C2)C1c1ccccc1Cl (stereo in doubt; 3B) [listing 2 of 2 here] | – | – | – | – | Activity (Plasmodium berghei [8]): inactive; Activity (Plasmodium falciparum [5]): Active; Activity (Plasmodium falciparum [6]): Active
24 | CCOC(=O)C1=C(C)NC2=C(C(=O)CC(c3ccc(Cl)c(OC)c3)C2)C1c1ccc(Cl)cc1C (stereo in doubt; 41B) | 9.4 nM | 9.7 nM | < 10% | < 10% | –

— ChEMBL document CHEMBL5579840, “Optimization of diastereomeric dihydropyridines as antimalarials” (Eur J Med Chem, 2024)
